# Reference: patent publication US7534558B2, “In vitro diagnostic test for enterovirus infections” (Universite de Lille 2 Droit Et Sante, priority 2003, dated 2009)
# Tests used:
# Format in all cases: cell-based, human
# [1] = system: different CVB serotypes (CVB1 to CVB6)/plasma induced IFNα production by PBMCs; test: IFNα production during infection of PBMCs by different CVB serotypes in presence of plasma preincubated with VP4-CVB4E2; conditions: plasma 1/10 preincubated 1 h with VP4 recombinant protein of CVB4E2 diluted 1/10
# Protocol: (§1) PBMCs separated from whole heparinated blood are distributed into microwells (plate of 96 wells), at the rate of 5 to 8.10^5 cell in 100 μl of supplemented RPMI medium by well. The infection of PBMC is made with a final volume of 100 μl of preparation in each well. After incubation for 48 h at 37° C. under a 5% CO2 atmosphere and 90% humidity, the supernatant is harvested and used immediately for IFNα dosage, or clarified by centrifugation for 10 minutes at 180×g and stored at −80° C. until dosage of the produced IFNα.
# (§2) The concentration of the produced IFNα is determined with a sensitive and specific technique, the DELFIA method (Dissociation Enhanced Lanthanide FluoroImmmoAssay) (Rönnblom and al 1997).
# (§3) The dosage of IFNα is performed following the DELFIA principle (Dissociation Enhanced Lanthanide FluoroImmunoAssay), based on a immunofluorescence in retarded phase method using antibodies binding IFNα of which one is labelled with europium. The use of an activation solution will release the europium conjugated with antibodies and emit a fluorescence proportional to the amount of produced IFNα and measured with a fluorometer (fluorometer LKB Wallac 1230 ARCOSO®, Turku, Finlande).
# (§4) Monoclonal anti-IFNα antibodies LT 273 (5.4 mg/ml) and LT 293 (4.8 mg/ml) supplied by Dr Gunar Alm (Uppsala, Sweden) are coated to the bottom of the wells after an incubation for 12 hours at room temperature. […]
# [2] = system: IFNα production by PBMCs; test: IFNα production by PBMCs with VP4 protein alone (control wells); conditions: no virus, no plasma
# Protocol: as §1, §2, §3, §4
# [3] = system: CVB4E2/plasma induced IFNα production by PBMCs; test: CVB4E2/plasma induced IFNα production by PBMCs (DELFIA)
# Protocol: (§5) VP4, H antigen or mock proteins were preincubated for 1 h at 37° C. at different concentrations with plasma from 5 healthy subjects diluted at optimal dilution (1/10 or 1/100 ). CVB3 or CVB4 were then added for 1 hour before incubating with PBMCs. […] On the contrary, the mock proteins isolated from non-infected Hep-2 cells have non effect on the IFNα production.
# as §1, §2, §3
# Monoclonal anti-IFNα antibodies LT 273 (5.4 mg/ml) and LT 293 (4.8 mg/ml) supplied by Dr Gunar Alm (Uppsala, Sweden) are coated to the bottom of the wells after an incubation for 12 hours at room temperature. These plates can be stored in a buffer at 4° C. or are used immediately. Standard samples of human IFNα are prepared with an “irrelevant” monoclonal mouse antibody IgG1 in order to establish the reference curve (10 measurements). The other samples to be analysed are added to each well (100 μl) with the dilution buffer and the “irrelevant” antibodies and incubated for 2 hours with gentle stirring at room temperature. The wells are washed 3 times with the washing solution. The antibody conjugated to europium (200 μl) is added to each well, left to incubate for 1 hour at room temperature with gentle stirring. The plate is washed 6 times with a washing solution. The activation solution (200 μl), added immediately after washing and left for 20 to 30 minutes for incubation in the well, causes a cleavage of the europium bound to the antibody fixed to IFNα, emitting a fluorescence measured with the fluorescence reader (LKB Wallac 1230 ARCUS®). The IFNα concentration will be calculated from the values of the measured fluorescence by means of the Graphpad program (San Diego, USA). The detection threshold of IFNα is of 0.5 IU/ml.
# The plasma from a healthy donor (optimal dilution 1/10th or 1/100th) is pre-incubated for 1 hour at 37° C. with the recombinant VP4 protein of CVB4E2 (optimal concentration at 1 μg/ml). The whole is incubated again for one hour at 37° C. in the presence of the CVB4E2 virus (dilutions at 1/10th or 1/100th; viral titer at 10^13 TCID50/ml) then applied to the PBMCs, (5.10^5/well) to incubate for 48 hours.
# In the same way, the plasma preparation preincubated for 1 hour and VP4 of CVB3 are incubated for 1 hour with CVB4E2 before infecting the PBMCs for 48 hours and determinating the amount of the produced IFNα.
# The virus (CVB4E2 or CVB3) infected PBMCs in the presence of plasma are deemed to be positive controls of this experimentation. The negative controls are obtained with one well of PBMC alone, one well of virus CVB4B2 alone and one well of CVB3 alone.
# The CVB4E2 induced IFNα production in cultures of PBMCs previously incubated in the presence of plasma from healthy subjects was measured. […]
# [4] = system: CVB3/plasma induced IFNα production by PBMCs; test: CVB3/plasma induced IFNα production by PBMCs (DELFIA); conditions: CVB3 infection of PBMCs; healthy donor plasma preincubated 1 h with the VP4 protein before CVB3; 48 h; positive control 323 IU/ml
# Protocol: as §5
# PBMCs separated from whole heparinated blood are distributed into microwells (plate of 96 wells), at the rate of 5 to 8.10^5 cell in 100 μl of supplemented RPMI medium by well. The infection of PBMC is made with a final volume of 100 μl of preparation in each well. […]
# as §2
# as §3, with “Finlande). […]” for “Finlande).”
substance,measurement,setting,value
"recombinant VP4 protein: recombinant VP4 protein of CVB4E2, made in E. coli as MBP-VP4 fusion and cleaved by Factor Xa",IFNα production with CVB serotypes other than CVB4E2,[1],remains high and stable
same,"IFNα production by PBMCs, protein alone",[2],do not lead to the IFNα production
same,IFNα production,"[3]; CVB4E2 infection of PBMCs, healthy donor plasma preincubated 1 h with the VP4 protein before CVB4E2, 48 h, positive control 148 IU/ml",8.5 IU/ml
same,IFNα production in the presence of CVB4E2,[3]; plasma 1/10 preincubated 1 h with VP4 recombinant protein of CVB4E2 diluted 1/10,collapsed
same,IFNα production,"[3]; protein at 0.01 μg/mL preincubated with plasma, then CVB4E2 (m.o.i. 1), PBMCs 48 h, mean +/- SD, three donors",189.5+/−21.6 IU/mL
same,IFNα production,"[3]; protein at 0.1 μg/ml preincubated with plasma, then CVB4E2 (m.o.i. 1), PBMCs 48 h, mean +/- SD, three donors",104.7+/−4.5 IU/mL
same,IFNα production,"[3]; protein at 1 μg/ml preincubated with plasma, then CVB4E2 (m.o.i. 1), PBMCs 48 h, mean +/- SD, three donors",44.1+/−24.3 IU/mL
same,IFNα production,"[3]; protein at 10 μg/ml preincubated with plasma, then CVB4E2 (m.o.i. 1), PBMCs 48 h, mean +/- SD, three donors",15.3+/−7.9 IU/mL
same,IFNα production,[4],308 IU/ml
